Assay results taken from ChEMBL document CHEMBL1123744, “A quantitative structure-activity relationship analysis of some 4-aminodiphenyl sulfone antibacterial agents using linear free energy and molecular modeling methods” (J Med Chem, 1987).

test system: Mycobacterium lufu; test: In vitro inhibition of Mycobacterium lufu dihydopterate synthase.

In order of rising pC:
1. Nc1ccc(S(=O)(=O)c2ccc([N+](=O)[O-])cc2)cc1  4.51
2. Nc1ccc(S(=O)(=O)c2ccc(Cl)cc2)cc1  4.89
3. NNC(=O)c1ccc(S(=O)(=O)c2ccc(N)cc2)cc1  4.9
4. Nc1ccc(S(=O)(=O)c2ccccc2)cc1  4.92
5. Nc1ccc(S(=O)(=O)c2ccc([N+](=O)[O-])cc2N)cc1  4.93
6. COC(=O)c1ccc(S(=O)(=O)c2ccc(N)cc2)cc1  4.93
7. Cc1ccc(S(=O)(=O)c2ccc(N)cc2)cc1  5.09
8. COc1ccc(S(=O)(=O)c2ccc(N)cc2)cc1  5.12
9. CC(=O)Nc1ccc(S(=O)(=O)c2ccc(N)cc2)cc1  5.15
10. CCCNc1ccc(S(=O)(=O)c2ccc(N)cc2)cc1OC  5.4
11. Nc1ccc(S(=O)(=O)c2ccc(C(=O)O)cc2)cc1  5.44
12. CCNc1ccc(S(=O)(=O)c2ccc(N)cc2)cc1OC  5.49
13. CCNc1ccc(S(=O)(=O)c2ccc(N)cc2)cc1  5.56
14. COc1cc(S(=O)(=O)c2ccc(N)cc2)ccc1N  5.56
15. Nc1ccc(S(=O)(=O)c2ccccc2[N+](=O)[O-])cc1  5.61
16. CCCNc1ccc(S(=O)(=O)c2ccc(N)cc2)cc1O  5.64
17. N#Cc1cc(N)ccc1S(=O)(=O)c1ccc(N)cc1  5.65
18. Nc1ccc(S(=O)(=O)c2ccccc2N)cc1  5.65
19. COC(=O)CNc1ccc(S(=O)(=O)c2ccc(N)cc2)cc1  5.65
20. CCNc1ccc(S(=O)(=O)c2ccc(N)cc2)cc1O  5.7
21. CCCNc1ccc(S(=O)(=O)c2ccc(N)cc2)c(O)c1  5.71
22. COc1cc(N)ccc1S(=O)(=O)c1ccc(N)cc1  5.73
23. CN(C)c1ccc(S(=O)(=O)c2ccc(N)cc2)cc1  5.75
24. CCNc1ccc(S(=O)(=O)c2ccc(N)cc2)c(OC)c1  5.75
25. Nc1ccc(S(=O)(=O)c2ccc(O)cc2)cc1  5.82
26. Nc1ccc(S(=O)(=O)c2ccc(N)cc2[N+](=O)[O-])cc1  5.87
27. CNc1ccc(S(=O)(=O)c2ccc(N)cc2)cc1  5.89
28. Nc1ccc(S(=O)(=O)c2ccc(N)cc2)cc1  5.92
29. CCCNc1ccc(S(=O)(=O)c2ccc(N)cc2)c(OC)c1  5.92
30. CCCCNc1ccc(S(=O)(=O)c2ccc(N)cc2)c(OC)c1  5.99
31. Nc1ccc(S(=O)(=O)c2ccc(N)cc2N)cc1  5.99
32. Nc1ccc(S(=O)(=O)c2ccc(NCC(=O)O)cc2)cc1  6.06
33. Nc1ccc(S(=O)(=O)c2ccc(N)c(O)c2)cc1  6.07
34. CCNc1ccc(S(=O)(=O)c2ccc(N)cc2)c(O)c1  6.14
35. Cc1cc(N)ccc1S(=O)(=O)c1ccc(N)cc1  6.19
36. Nc1ccc(S(=O)(=O)c2ccc(N)cc2Cl)cc1  6.32
